Assay results as given in paper PMC5078989, “Targeted inhibition of the COP9 signalosome for treatment of cancer” (Nature Communications, 2016).

Key:
Type in all cases: biochemical
human MMP2 = target: T1, human MMP2 (Homo sapiens, UniProt P08253); test: Selectivity assay MMP2
T1 construct: human MMP2 (Uniprot P08253), amino acids 1–660; made in house; host or cells: insect cells (baculovirus)
T1 sequence (P08253 30-660): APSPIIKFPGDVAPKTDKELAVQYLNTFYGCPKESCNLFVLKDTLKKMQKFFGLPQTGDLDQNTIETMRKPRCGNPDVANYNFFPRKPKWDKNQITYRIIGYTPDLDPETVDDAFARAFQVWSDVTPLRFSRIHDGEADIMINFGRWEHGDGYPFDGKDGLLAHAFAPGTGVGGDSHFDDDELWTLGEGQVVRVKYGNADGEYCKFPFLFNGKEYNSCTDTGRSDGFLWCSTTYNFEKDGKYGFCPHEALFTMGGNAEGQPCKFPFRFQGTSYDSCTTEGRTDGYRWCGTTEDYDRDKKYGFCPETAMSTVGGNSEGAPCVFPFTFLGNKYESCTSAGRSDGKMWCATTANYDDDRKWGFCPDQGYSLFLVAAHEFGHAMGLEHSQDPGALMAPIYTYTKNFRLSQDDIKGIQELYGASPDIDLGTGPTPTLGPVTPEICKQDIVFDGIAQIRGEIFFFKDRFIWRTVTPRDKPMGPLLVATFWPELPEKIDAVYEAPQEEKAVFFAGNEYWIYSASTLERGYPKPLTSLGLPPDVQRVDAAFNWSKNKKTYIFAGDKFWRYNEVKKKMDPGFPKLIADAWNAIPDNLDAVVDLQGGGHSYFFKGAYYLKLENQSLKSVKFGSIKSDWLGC
Procedure: (§1) All biochemical assays were performed at room temperature in 384-well plates in a total volume of 25.25 μl per well. Test compounds were dissolved in 90% (v/v) DMSO/water. For the assays, 250 nl of compound solution was added per well, followed by addition of 12.5 μl protease solution. After 70 min of pre-incubation at room temperature, the reactions were started by addition of 12.5 μl substrate solution and followed either by measuring fluorescence intensity (rhodamine 110-based substrates) or by fluorescence lifetime (PT14-based substrates). The effect of compound on enzymatic activity was obtained from the linear part of the progress curves and determined after 1 h (t=60 min). The final compound concentrations ranged from 100 μM to 1 nM.
(§2) Matrix metalloproteinases. Human MMP1 (Uniprot P03956), amino acids 1–469, expressed in and purified from stable transfected C127 cells; human MMP2 (Uniprot P08253), amino acids 1–660, expressed in and purified from insect cells (baculovirus expression system); human MMP8 (Uniprot P22894), amino acids 100–262, expressed in and purified from E. coli; human MMP9 (Uniprot P14780), amino acids 1–707, expressed in and purified from stable transfected 293 cells; human MMP12 (Uniprot P39900), amino acids 101–268, expressed in and purified from E. coli; human MMP13 (Uniprot P45452), amino acids 103–274, expressed in and purified from E. coli; human MMP14 (Uniprot P50281), amino acids 112–284, expressed in and purified from E. coli; human ADAM17 (Uniprot P78536), amino acids 1–670, expressed in and purified from insect cells (baculovirus expression system); substrate: Ac-C(PT14)-[…]-NH2 purchased from Biosyntan (product number 8069); enzyme concentrations: 3 nM (MMP1), 1 nM (MMP2), 3 nM (MMP8), 0.1 nM (MMP9), 0.5 nM (MMP12), 0.13 nM (MMP13), 0.005 nM (MMP14), 30 nM (ADAM17); substrate concentration: 0.8 μM; assay buffer: 100 mM Tris, pH 7.4, 100 mM NaCl, 10 mM CaCl2, 10 μM ZnCl2, 0.075% (v/v) Brij35.

CSN5 = target: T2, CSN5 (Homo sapiens, UniProt Q92905); test: CSN5 activity assay (CSN deneddylation, fluorescence polarization); details: JAMM domain protease; means±s.d.
T2 construct: made in house; host or cells: Sf21 insect cells, co-infection of separate baculoviruses
Procedure: Unlike the majority of proteases, it is not active as an individual subunit or as an isolated catalytic domain. […] For the identification of CSN inhibitors, we therefore conducted a high-throughput screening campaign using a biochemical assay with recombinant CSN and a fluorescence-labelled and NEDD8-modified CRL substrate[30][40] (PT22-NEDD8-SCF^Skp2; Supplementary Table 1).
The potency of CSN5 inhibitors was determined in a CSN activity assay using changes in fluorescence polarization as the readout. Reactions were carried out at room temperature in 384-well plates. […] The effect of compound on enzymatic activity was determined from the linear part of the progression curves by an end-point measurement of the fluorescence polarization at 590 nm after excitation at 540 nm using a PHERAstar plate reader (BMG LABTECH GmbH). IC50 values were calculated from the plot of percentage of inhibition versus inhibitor concentration using the non-linear regression analysis software Origin 7.5SR6 (OriginLab Corp.).

Human AMSHLP = target: T3, Human AMSHLP (Homo sapiens, UniProt Q96FJ0); test: Selectivity assay AMSHLP (ubiquitin-rhodamine110-glycine substrate); details: JAMM domain protease
T3 construct: made in house; host or cells: E. coli
T3 sequence (Q96FJ0 1-436): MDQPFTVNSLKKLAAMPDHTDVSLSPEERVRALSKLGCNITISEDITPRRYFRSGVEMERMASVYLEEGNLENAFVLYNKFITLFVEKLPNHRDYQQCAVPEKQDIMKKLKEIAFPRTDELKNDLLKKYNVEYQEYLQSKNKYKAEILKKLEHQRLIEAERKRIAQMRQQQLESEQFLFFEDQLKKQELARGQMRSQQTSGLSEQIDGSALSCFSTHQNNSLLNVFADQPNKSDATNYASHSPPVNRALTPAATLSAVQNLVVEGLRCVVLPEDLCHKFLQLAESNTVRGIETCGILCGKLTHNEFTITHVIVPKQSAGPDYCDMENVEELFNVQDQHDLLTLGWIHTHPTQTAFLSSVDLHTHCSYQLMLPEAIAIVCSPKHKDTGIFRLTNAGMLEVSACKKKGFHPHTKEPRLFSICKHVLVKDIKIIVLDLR
Procedure: as §1
Human AMSHLP. Enzyme was expressed in and purified from E. coli; substrate: ubiquitin-rhodamine110-glycine was purchased from emp Biotech GmbH (Berlin, Germany; product number AS 09/12-A4); enzyme concentration: 4 nM; substrate concentration: 200 nM; assay buffer: 100 mM Tris/HCl at pH 7.5, 10 mM CaCl2, 100 mM NaCl, 10 μM ZnCl2, 0.005% (v/v) BRIJ 35 and 5 mM dithioerythritol (DTE).

human MMP13 = target: T4, human MMP13 (Homo sapiens, UniProt P45452); test: Selectivity assay MMP13
T4 construct: human MMP13 (Uniprot P45452), amino acids 103–274; made in house; host or cells: E. coli
Procedure: as §1, §2

human MMP9 = target: T5, human MMP9 (Homo sapiens, UniProt P14780); test: Selectivity assay MMP9
T5 construct: human MMP9 (Uniprot P14780), amino acids 1–707; made in house; host or cells: stably transfected 293 cells
Procedure: as §1, §2

human MMP8 = target: T6, human MMP8 (Homo sapiens, UniProt P22894); test: Selectivity assay MMP8
T6 construct: human MMP8 (Uniprot P22894), amino acids 100–262; made in house; host or cells: E. coli
Procedure: as §1, §2

human ADAM17 = target: T7, human ADAM17 (Homo sapiens, UniProt P78536); test: Selectivity assay ADAM17
T7 construct: human ADAM17 (Uniprot P78536), amino acids 1–670; made in house; host or cells: insect cells (baculovirus)
Procedure: as §1, §2

human MMP12 = target: T8, human MMP12 (Homo sapiens, UniProt P39900); test: Selectivity assay MMP12
T8 construct: human MMP12 (Uniprot P39900), amino acids 101–268; made in house; host or cells: E. coli
Procedure: as §1, §2

human MMP14 = target: T9, human MMP14 (Homo sapiens, UniProt P50281); test: Selectivity assay MMP14
T9 construct: human MMP14 (Uniprot P50281), amino acids 112–284; made in house; host or cells: E. coli
Procedure: as §1, §2

T6 sequence (P22894 100-262): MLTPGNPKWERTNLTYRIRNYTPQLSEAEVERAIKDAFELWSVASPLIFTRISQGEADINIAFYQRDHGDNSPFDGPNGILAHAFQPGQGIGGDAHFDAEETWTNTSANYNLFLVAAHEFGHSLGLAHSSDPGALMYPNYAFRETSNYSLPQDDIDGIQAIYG
T7 sequence (P78536 18-670): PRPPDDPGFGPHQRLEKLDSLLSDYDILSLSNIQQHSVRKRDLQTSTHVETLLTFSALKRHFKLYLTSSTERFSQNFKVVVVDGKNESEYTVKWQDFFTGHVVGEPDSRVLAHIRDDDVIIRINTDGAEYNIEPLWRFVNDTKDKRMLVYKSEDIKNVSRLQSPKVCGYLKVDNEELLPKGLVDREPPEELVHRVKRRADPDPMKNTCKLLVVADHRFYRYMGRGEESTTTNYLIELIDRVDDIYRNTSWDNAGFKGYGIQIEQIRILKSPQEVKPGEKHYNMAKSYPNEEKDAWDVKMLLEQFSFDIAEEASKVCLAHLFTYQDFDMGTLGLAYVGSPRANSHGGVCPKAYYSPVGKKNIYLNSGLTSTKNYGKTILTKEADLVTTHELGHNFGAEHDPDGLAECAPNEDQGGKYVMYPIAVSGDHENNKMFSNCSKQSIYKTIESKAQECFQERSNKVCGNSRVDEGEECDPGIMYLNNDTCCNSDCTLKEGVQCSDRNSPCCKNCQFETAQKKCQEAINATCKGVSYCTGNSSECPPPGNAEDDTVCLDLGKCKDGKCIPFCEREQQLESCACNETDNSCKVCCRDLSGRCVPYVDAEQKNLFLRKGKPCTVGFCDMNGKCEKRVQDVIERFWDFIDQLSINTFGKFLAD
T8 sequence (P39900 101-268): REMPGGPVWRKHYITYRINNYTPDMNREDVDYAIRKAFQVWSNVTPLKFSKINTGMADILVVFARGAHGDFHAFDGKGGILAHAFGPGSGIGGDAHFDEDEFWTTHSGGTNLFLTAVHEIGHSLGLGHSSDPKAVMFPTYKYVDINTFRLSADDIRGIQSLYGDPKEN
T5 sequence (P14780 20-707): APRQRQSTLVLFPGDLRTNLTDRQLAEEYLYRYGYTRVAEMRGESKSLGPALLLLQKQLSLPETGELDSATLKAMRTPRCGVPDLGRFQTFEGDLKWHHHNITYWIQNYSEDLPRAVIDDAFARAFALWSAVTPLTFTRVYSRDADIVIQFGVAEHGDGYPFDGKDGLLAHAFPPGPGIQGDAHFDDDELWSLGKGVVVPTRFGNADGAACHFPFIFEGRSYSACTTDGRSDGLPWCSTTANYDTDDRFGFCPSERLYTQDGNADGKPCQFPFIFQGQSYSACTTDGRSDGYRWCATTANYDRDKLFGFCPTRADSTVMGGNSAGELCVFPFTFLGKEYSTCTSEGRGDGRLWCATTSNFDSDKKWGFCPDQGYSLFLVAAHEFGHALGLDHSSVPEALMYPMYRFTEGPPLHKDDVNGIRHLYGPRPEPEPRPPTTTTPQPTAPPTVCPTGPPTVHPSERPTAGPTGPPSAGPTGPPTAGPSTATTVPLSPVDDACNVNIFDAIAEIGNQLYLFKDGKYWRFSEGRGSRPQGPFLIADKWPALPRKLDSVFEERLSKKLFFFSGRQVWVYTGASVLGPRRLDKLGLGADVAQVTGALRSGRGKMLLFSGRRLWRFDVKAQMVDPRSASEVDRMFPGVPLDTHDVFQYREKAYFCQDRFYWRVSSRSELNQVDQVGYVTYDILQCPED

## N#Cc1ccc(C2C(O)CCCc3cncn32)c(-c2ccccc2Cl)c1 (stereo not drawn) [CSN5i-1b]
Human MMP2
  IC50: > 100 µM
CSN5
  IC50: 1.1 ± 0.5 µM
Human AMSHLP
  IC50: > 100 µM
Human MMP13
  IC50: > 100 µM
Human MMP9
  IC50: > 100 µM
Human MMP8
  IC50: > 100 µM
Human ADAM17
  IC50: > 100 µM
Human MMP12
  IC50: > 100 µM
Human MMP14
  IC50: > 100 µM
